Laboratory results reported in PubChem BioAssay (NCI).
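GI50 is the concentration that inhibits growth by half. TGI denotes the concentration required for complete inhibition of growth.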

How the values were obtained:
Assay in all cases: DTP human tumour cell line panel, 384-well format
[1] = tested on: 786-0 renal
[2] = tested on: A498 renal
[3] = tested on: A549 NSCLC
[4] = tested on: ACHN renal
[5] = tested on: BT-549 breast
[6] = tested on: CAKI-1 renal
[7] = tested on: CCRF-CEM leukemia
[8] = tested on: COLO 205 colon
[9] = tested on: DU-145 prostate
[10] = tested on: EKVX NSCLC
[11] = tested on: HCC-2998 colon
[12] = tested on: HCT-116 colon
[13] = tested on: HCT-15 colon
[14] = tested on: HL-60(TB) leukemia
[15] = tested on: HOP-62 NSCLC
[16] = tested on: HOP-92 NSCLC
[17] = tested on: HS 578T breast
[18] = tested on: HT29 colon
[19] = tested on: IGROV1 ovarian
[20] = tested on: K-562 leukemia
[21] = tested on: KM12 colon
[22] = tested on: LOX IMVI melanoma
[23] = tested on: M14 melanoma
[24] = tested on: MALME-3M melanoma
[25] = tested on: MCF7 breast
[26] = tested on: MDA-MB-231 breast
[27] = tested on: MDA-MB-435 melanoma
[28] = tested on: MDA-MB-468 breast
[29] = tested on: MOLT-4 leukemia
[30] = tested on: NCI-H226 lung
[31] = tested on: NCI-H23 lung
[32] = tested on: NCI-H322M lung
[33] = tested on: NCI-H460 NSCLC
[34] = tested on: NCI-H522 lung
[35] = tested on: NCI/ADR-RES ovarian
[36] = tested on: OVCAR-3 ovarian
[37] = tested on: OVCAR-4 ovarian
[38] = tested on: OVCAR-5 ovarian
[39] = tested on: OVCAR-8 ovarian
[40] = tested on: PC-3 prostate
[41] = tested on: RPMI-8226 leukemia
[42] = tested on: RXF 393 renal
[43] = tested on: SF-268 CNS
[44] = tested on: SF-295 CNS
[45] = tested on: SF-539 CNS
[46] = tested on: SK-MEL-5 melanoma
[47] = tested on: SK-OV-3 ovarian
[48] = tested on: SN12C renal
[49] = tested on: SNB-19 CNS
[50] = tested on: SNB-75 CNS
[51] = tested on: SR leukemia
[52] = tested on: SW-620 colon
[53] = tested on: TK-10 renal
[54] = tested on: U251 glioblastoma
[55] = tested on: UO-31 renal

Work on O=C(Nc1ccncc1)C(=O)c1cn(Cc2ccc(Cl)cc2)c2ccccc12 yielded a GI50 [1] of less than 10 nM, a TGI [1] of 2010 nM and a GI50 [2] of 30.5 nM. It also gave a TGI [2] greater than 100000 nM, a GI50 [3] of 1090 nM and a TGI [3] greater than 100000 nM. For the same molecule, the GI50 [4] was less than 10 nM, the TGI [4] was greater than 100000 nM and the GI50 [5] was less than 10 nM. For the same molecule, the TGI [5] was greater than 100000 nM, the GI50 [6] was less than 10 nM and the TGI [6] was greater than 100000 nM. The GI50 [7] was less than 10 nM, the TGI [7] was 16.5 nM and the GI50 [8] was 126 nM. It also gave a TGI [8] of 353 nM, a GI50 [9] of 20.8 nM and a TGI [9] greater than 100000 nM. It also gave a GI50 [10] of less than 10 nM, a TGI [10] greater than 100000 nM and a GI50 [11] of less than 10 nM. For the same molecule, the TGI [11] was 377 nM, the GI50 [12] was less than 10 nM and the TGI [12] was greater than 100000 nM. The GI50 [13] was less than 10 nM, the TGI [13] was greater than 100000 nM and the GI50 [14] was less than 10 nM. The TGI [14] was less than 10 nM, the GI50 [15] was less than 10 nM and the TGI [15] was 24100 nM. It also gave a GI50 [16] of 10.4 nM, a TGI [16] of 34300 nM and a GI50 [17] of less than 10 nM. It also gave a TGI [17] of less than 10 nM, a GI50 [18] of less than 10 nM and a TGI [18] greater than 100000 nM. It also gave a GI50 [19] of less than 10 nM, a TGI [19] greater than 100000 nM and a GI50 [20] of less than 10 nM. The TGI [20] was 11.9 nM, the GI50 [21] was less than 10 nM and the TGI [21] was greater than 100000 nM. For the same molecule, the GI50 [22] was less than 10 nM, the TGI [22] was greater than 100000 nM and the GI50 [23] was less than 10 nM. The TGI [23] was 36.8 nM, the GI50 [24] was less than 10 nM and the TGI [24] was 23400 nM. For the same molecule, the GI50 [25] was less than 10 nM, the TGI [25] was greater than 100000 nM and the GI50 [26] was 46.8 nM. For the same molecule, the TGI [26] was greater than 100000 nM, the GI50 [27] was less than 10 nM and the TGI [27] was less than 10 nM. It also gave a GI50 [28] of less than 10 nM, a TGI [28] of 20.8 nM and a GI50 [29] of less than 10 nM. The TGI [29] was less than 10 nM, the GI50 [30] was less than 10 nM and the TGI [30] was 787 nM. For the same molecule, the GI50 [31] was less than 10 nM, the TGI [31] was 67.4 nM and the GI50 [32] was 44.8 nM. For the same molecule, the TGI [32] was greater than 100000 nM, the GI50 [33] was less than 10 nM and the TGI [33] was 52.7 nM. For the same molecule, the GI50 [34] was less than 10 nM, the TGI [34] was less than 10 nM and the GI50 [35] was less than 10 nM. The TGI [35] was less than 10 nM, the GI50 [36] was less than 10 nM and the TGI [36] was less than 10 nM. It also gave a GI50 [37] of 23 nM, a TGI [37] greater than 100000 nM and a GI50 [38] of 894 nM. It also gave a TGI [38] greater than 100000 nM, a GI50 [39] of less than 10 nM and a TGI [39] of 14100 nM. It also gave a GI50 [40] of less than 10 nM, a TGI [40] greater than 100000 nM and a GI50 [41] of less than 10 nM. The TGI [41] was less than 10 nM, the GI50 [42] was less than 10 nM and the TGI [42] was less than 10 nM. The GI50 [43] was less than 10 nM, the TGI [43] was greater than 100000 nM and the GI50 [44] was less than 10 nM. The TGI [44] was less than 10 nM, the GI50 [45] was less than 10 nM and the TGI [45] was 24.7 nM. The GI50 [46] was less than 10 nM, the TGI [46] was 11.6 nM and the GI50 [47] was 25 nM. The TGI [47] was greater than 100000 nM, the GI50 [48] was 17.3 nM and the TGI [48] was greater than 100000 nM. It also gave a GI50 [49] of 13.8 nM, a TGI [49] greater than 100000 nM and a GI50 [50] of less than 10 nM. For the same molecule, the TGI [50] was 3230 nM, the GI50 [51] was less than 10 nM and the TGI [51] was less than 10 nM. It also gave a GI50 [52] of less than 10 nM, a TGI [52] greater than 100000 nM and a GI50 [53] of less than 10 nM. For the same molecule, the TGI [53] was 72200 nM, the GI50 [54] was less than 10 nM and the TGI [54] was 1950 nM. It also gave a GI50 [55] of less than 10 nM and a TGI [55] greater than 100000 nM.
